Results taken from patent US20210070748A1, “INHIBITORS OF BRUTONS TYROSINE KINASE” (Pharmacyclics LLC, priority 2015, published 2021).
pIC50: −log10 of the molar value.

Tests used:
Format in all cases: biochemical
TEC = target: T1, TEC (Homo sapiens, UniProt P42680); test: Inhibition of a panel of kinases, in vitro HotSpot kinase assay: TEC; conditions: D-compounds panel data; 1 μM ATP
T1 sequence (P42680 1-631): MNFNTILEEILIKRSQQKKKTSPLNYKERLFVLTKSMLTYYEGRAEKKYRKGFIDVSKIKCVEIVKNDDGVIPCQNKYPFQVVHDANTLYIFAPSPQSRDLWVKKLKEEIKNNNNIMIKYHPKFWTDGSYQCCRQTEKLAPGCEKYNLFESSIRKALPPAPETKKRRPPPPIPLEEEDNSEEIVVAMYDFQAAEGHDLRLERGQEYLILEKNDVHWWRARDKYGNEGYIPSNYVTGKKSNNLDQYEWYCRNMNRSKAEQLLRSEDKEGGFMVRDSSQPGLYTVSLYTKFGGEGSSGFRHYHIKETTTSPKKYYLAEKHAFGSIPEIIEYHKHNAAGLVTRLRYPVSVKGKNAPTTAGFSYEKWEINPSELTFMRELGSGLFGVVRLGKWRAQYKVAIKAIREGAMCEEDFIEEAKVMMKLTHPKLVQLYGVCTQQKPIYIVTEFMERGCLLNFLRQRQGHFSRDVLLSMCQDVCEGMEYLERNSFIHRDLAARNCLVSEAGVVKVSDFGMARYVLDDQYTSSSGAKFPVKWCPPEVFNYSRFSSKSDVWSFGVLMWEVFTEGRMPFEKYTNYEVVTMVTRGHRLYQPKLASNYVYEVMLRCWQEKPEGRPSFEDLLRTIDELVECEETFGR
Protocol: (§1) The degree of inhibition of a panel of kinases is determined using the in vitro HotSpot kinase assay (purified enzymes, ^33P-ATP, an appropriate substrate and 1 μM ATP).

ITK = target: T2, ITK (Homo sapiens, UniProt Q08881); test: Inhibition of a panel of kinases, in vitro HotSpot kinase assay: ITK; conditions: D-compounds panel data; 1 μM ATP
T2 sequence (Q08881 1-620): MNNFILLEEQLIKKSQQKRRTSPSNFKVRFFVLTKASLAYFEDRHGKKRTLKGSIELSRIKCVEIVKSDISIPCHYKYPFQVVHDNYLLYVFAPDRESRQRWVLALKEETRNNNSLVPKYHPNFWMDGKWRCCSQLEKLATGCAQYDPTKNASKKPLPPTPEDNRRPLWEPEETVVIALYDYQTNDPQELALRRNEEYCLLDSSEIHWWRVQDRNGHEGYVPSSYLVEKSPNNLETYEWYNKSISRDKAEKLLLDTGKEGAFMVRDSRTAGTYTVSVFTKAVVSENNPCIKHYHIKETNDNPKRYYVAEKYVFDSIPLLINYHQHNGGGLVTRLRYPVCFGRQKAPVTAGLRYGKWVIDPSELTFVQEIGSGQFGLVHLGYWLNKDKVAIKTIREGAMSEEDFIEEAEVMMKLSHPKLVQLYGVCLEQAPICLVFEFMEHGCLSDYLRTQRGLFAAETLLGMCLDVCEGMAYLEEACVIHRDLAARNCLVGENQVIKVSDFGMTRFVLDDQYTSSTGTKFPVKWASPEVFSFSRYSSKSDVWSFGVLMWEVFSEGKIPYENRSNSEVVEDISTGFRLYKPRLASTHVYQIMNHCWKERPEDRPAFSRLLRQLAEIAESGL
Protocol: as §1

LCK = LCK (Homo sapiens, UniProt P06239); test: Inhibition of a panel of kinases, in vitro HotSpot kinase assay: LCK; conditions: D-compounds panel data; 1 μM ATP; read-out: IC50 LCK
LCK, sequence (P06239 whole entry): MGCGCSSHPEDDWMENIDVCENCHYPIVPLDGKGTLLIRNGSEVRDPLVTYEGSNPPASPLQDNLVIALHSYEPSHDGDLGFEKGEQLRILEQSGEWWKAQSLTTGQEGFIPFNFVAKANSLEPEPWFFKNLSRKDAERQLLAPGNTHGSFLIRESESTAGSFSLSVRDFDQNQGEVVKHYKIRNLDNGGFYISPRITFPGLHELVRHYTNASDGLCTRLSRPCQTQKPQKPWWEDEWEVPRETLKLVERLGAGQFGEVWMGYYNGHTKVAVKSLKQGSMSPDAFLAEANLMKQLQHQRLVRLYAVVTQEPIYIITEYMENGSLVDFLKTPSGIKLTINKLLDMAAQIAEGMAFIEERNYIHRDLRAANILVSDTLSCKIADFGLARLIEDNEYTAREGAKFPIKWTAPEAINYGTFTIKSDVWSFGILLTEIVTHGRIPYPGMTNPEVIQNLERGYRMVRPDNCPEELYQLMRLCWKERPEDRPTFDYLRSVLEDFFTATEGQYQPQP

SRC = SRC (Homo sapiens, UniProt P12931); test: Inhibition of a panel of kinases, in vitro HotSpot kinase assay: SRC; conditions: D-compounds panel data; 1 μM ATP
SRC, sequence (P12931 whole entry): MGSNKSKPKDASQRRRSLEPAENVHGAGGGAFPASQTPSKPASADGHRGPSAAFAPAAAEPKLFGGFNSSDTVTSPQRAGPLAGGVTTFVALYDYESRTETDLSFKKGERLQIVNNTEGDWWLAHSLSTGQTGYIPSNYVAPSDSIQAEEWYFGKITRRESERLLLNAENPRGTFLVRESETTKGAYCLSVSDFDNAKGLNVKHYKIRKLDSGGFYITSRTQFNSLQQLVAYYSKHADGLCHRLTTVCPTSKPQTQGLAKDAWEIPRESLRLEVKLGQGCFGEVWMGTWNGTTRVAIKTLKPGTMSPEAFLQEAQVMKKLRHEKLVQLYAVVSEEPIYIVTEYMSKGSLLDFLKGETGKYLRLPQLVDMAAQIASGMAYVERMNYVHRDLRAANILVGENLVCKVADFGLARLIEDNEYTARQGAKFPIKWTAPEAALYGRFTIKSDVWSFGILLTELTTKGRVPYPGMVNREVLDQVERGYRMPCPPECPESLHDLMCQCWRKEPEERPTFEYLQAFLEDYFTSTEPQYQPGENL
Protocol: as §1

BTK-WT = target: T3, BTK-WT (Homo sapiens, UniProt Q06187); test: Btk in vitro inhibitory activity (one of Method A TR-FRET, Method B electrophoretic mobility shift, Method C radiometric filter binding); conditions: D-compounds panel data; read-out: IC50 BTK-WT
T3 construct: purified from insect cells as a full-length construct containing an N-terminal 6X-His tag; His6 (N); made in house; host or cells: insect cells (baculovirus Sf21 in Method B)
T3 sequence (Q06187 whole entry): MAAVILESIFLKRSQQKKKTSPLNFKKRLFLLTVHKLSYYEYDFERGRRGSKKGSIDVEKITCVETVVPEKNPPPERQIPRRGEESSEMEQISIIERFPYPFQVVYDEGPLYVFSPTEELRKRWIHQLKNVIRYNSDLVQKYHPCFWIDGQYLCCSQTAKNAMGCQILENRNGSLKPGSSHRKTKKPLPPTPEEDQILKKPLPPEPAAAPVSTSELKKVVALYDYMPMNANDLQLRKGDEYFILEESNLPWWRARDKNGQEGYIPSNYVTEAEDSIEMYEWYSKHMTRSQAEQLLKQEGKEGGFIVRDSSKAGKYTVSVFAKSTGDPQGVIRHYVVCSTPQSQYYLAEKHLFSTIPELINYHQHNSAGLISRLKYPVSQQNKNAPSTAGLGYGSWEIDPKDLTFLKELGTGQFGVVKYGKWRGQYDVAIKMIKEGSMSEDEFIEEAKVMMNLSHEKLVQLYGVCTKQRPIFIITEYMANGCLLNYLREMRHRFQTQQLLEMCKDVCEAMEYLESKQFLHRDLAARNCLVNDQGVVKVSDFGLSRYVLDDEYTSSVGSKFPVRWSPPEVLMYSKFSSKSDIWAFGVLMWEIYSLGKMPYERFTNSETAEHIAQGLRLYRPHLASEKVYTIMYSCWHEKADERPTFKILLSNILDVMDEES

SMILES	pIC50 (TEC)	pIC50 (ITK)	pIC50 (LCK)	pIC50 (SRC)	pIC50 (BTK-WT)
C[C@@H]1[C@H](NC(=O)N(C)C)CCCN1c1cnc(C(N)=O)c(Nc2cn[nH]c2)n1 [Example D-53, 5-[(2R,3R)-3-[(dimethylcarbamoyl)amino]-2-methylpiperidin-1-yl]-3-[(1H-pyrazol-4-yl)amino]pyrazine-2-carboxamide]	7.00 to 8.00	6.00 to 7.00	6.00 to 7.00	6.00 to 7.00	7.00 to 8.00
C[C@@H]1[C@H](NC(=O)c2ccc3c(c2)C(C)(C)CO3)CCCN1c1cnc(C(N)=O)c(Nc2cnn(C)c2)n1 [Example D-55, 5-[(2R,3R)-3-(3,3-dimethyl-2,3-dihydro-1-benzofuran-5-amido)-2-methylpiperidin-1-yl]-3-[(1-methyl-1H-pyrazol-4-yl)amino]pyrazine-2-carboxamide]	≥ 8.00	6.00 to 7.00	7.00 to 8.00	7.00 to 8.00	≥ 8.00
CC1COc2cc(C(=O)N[C@@H]3CCCN(c4cnc(C(N)=O)c(Nc5cnn(C)c5)n4)[C@@H]3C)ccc2C1 (stereo partly drawn) [Example D-56, 3-[(1-methyl-1H-pyrazol-4-yl)amino]-5-[(2R,3R)-2-methyl-3-(3-methyl-3,4-dihydro-2H-1-benzopyran-7-amido)piperidin-1-yl]pyrazine-2-carboxamide]	≥ 8.00	6.00 to 7.00	7.00 to 8.00	7.00 to 8.00	≥ 8.00
C[C@@H]1[C@H](NC(=O)c2cnn(C(C)(C)C)c2)CCCN1c1cnc(C(N)=O)c(Nc2cnn(C)c2)n1 [Example D-57, 5-[(2R,3R)-3-(1-tert-butyl-1H-pyrazole-4-amido)-2-methylpiperidin-1-yl]-3-[(1-methyl-1H-pyrazol-4-yl)amino]pyrazine-2-carboxamide]	7.00 to 8.00	6.00 to 7.00	6.00 to 7.00	7.00 to 8.00	≥ 8.00
CN(C)C(=O)N[C@@H]1CCCN(c2cnc(C(N)=O)c(Nc3ccc(C4(C)CCN(C5CCCC5)CC4)cc3)n2)[C@@H]1CO [Example D-58, 3-{[4-(1-cyclopentyl-4-methylpiperidin-4-yl)phenyl]amino}-5-[(2S,3R)-3-[(dimethylcarbamoyl)amino]-2-(hydroxymethyl)piperidin-1-yl]pyrazine-2-carboxamide]	6.00 to 7.00	5.00 to 6.00	6.00 to 7.00	6.00 to 7.00	≥ 8.00
CN(C)C(=O)N[C@H]1CCCN(c2cnc(C(N)=O)c(Nc3ccc(C4(C)CCN(C5CCCC5)CC4)cc3)n2)[C@H]1CO [Example D-59, 3-{[4-(1-cyclopentyl-4-methylpiperidin-4-yl)phenyl]amino}-5-[(2R,3S)-3-[(dimethylcarbamoyl)amino]-2-(hydroxymethyl)piperidin-1-yl]pyrazine-2-carboxamide]	< 5.00	5.00 to 6.00	5.00 to 6.00	5.00 to 6.00	6.00 to 7.00
CN(C)C(=O)N[C@@H]1CCCN(c2cnc(C(N)=O)c(Nc3ccc(C4(C)CCN(C5CCCC5)CC4)cc3)n2)[C@H]1CO [Example D-60, 3-{[4-(1-cyclopentyl-4-methylpiperidin-4-yl)phenyl]amino}-5-[(2R,3R)-3-[(dimethylcarbamoyl)amino]-2-(hydroxymethyl)piperidin-1-yl]pyrazine-2-carboxamide]	5.00 to 6.00	6.00 to 7.00	5.00 to 6.00	6.00 to 7.00	6.00 to 7.00
CN(C)C(=O)N[C@H]1CCCN(c2cnc(C(N)=O)c(Nc3ccc(C4(C)CCN(C5CCCC5)CC4)cc3)n2)[C@@H]1CO [Example D-61, 3-{[4-(1-cyclopentyl-4-methylpiperidin-4-yl)phenyl]amino}-5-[(2S,3S)-3-[(dimethylcarbamoyl)amino]-2-(hydroxymethyl)piperidin-1-yl]pyrazine-2-carboxamide]	< 5.00	5.00 to 6.00	5.00 to 6.00	5.00 to 6.00	6.00 to 7.00
